# Like-named read-outs stand apart in the source and are kept apart here.
# Key:
# HIV-1 = test: microbe, parasite or virus in culture; conditions: for IC50: Human immunodeficiency virus 1, CEM-SS
# Procedure: CEM-SS cells were seeded at 10,000 cells per well into 96-cell plates precoated with poly L-lysine. The cell monolayers were infected with about 50 plaque forming units of HIV-1. After 1 hr for virus attachment, the cell monolayers were overlaid with growth medium with or without added test compound. After 3 days incubation at 37° C. in a CO2 incubator, the cell monolayers received a second overlay of growth medium with or without added test compound and incubation at 37° C. continued for a total of 5 days. HIV-1 plaques were counted, the counts entered into a computer and a IC50 for HIV-1 plaque formation was determined. Each experiment was replicated at least once.
# Dose-response relationships were used to compare drug effects. These were constructed by linearly regressing the percent inhibition of parameters derived in the preceding sections against log drug concentrations. The 50% inhibitory (I50) concentrations were calculated from the regression lines.
# HIV = assay type: cell-based; conditions: persistently infected monocyte/macrophages and T-cells; reverse transcriptase, p24 core antigen, infectious virus; in words
# HCMV = HCMV plaque (focus) reduction assay in HFF cells; assay type: cell-based, human cytomegalovirus; conditions: in words
# [1] = Cytotoxicity by uptake of [3H]thymidine in uninfected CEM-SS cells; assay type: cell-based; conditions: human; uptake of [3H]thymidine in uninfected CEM-SS cells (Table I); read-out: 50% Inhibitory Concentration, Cytotoxicity
# Procedure: CEM-SS cells were seeded in 96 well plates (10,000 cells per well) in growth medium containing various concentrations of test compound and incubated at 37° C. in a CO2 incubator. After 36 hours incubation the cells were pulse-labeled for 4 hours at 37° C. with 1 μCi ^3H-TdR uptake into cellular DNA. Controls consisted of CEM-SS cells not treated with drug and pulse-labeled for 4 hours with [^3H]thymidine (positive control) or harvested immediately after addition of [^3H]thymidine (negative control). The harvested samples were counted by scintillation spectrometry to obtain a mean±one S.D. for each set of triplicate wells. The data were entered into a computer and used to determine a IC50 for cell cytotoxicity. Each experiment was replicated at least once.
# RT = RT (Human immunodeficiency virus type 1 group M subtype B, UniProt P04585); test: RT inhibition assays; assay type: biochemical; conditions: in words
SMILES,"IC50 (HIV-1; read-out: 50% Inhibitory Concentration, Antiviral Activity: HIV, syncytial assay in CEM-SS cells (Table I)) [nM]","IC50 (HIV-1; read-out: Syncytial Assay 50% Inhibitory Concentration, HIV-1G-691 (post AZT therapy), clinical isolate resistant to AZT) [nM]","IC50 (HIV-1; read-out: Syncytial Assay 50% Inhibitory Concentration, HIV-1G-762 (pre AZT therapy), clinical isolate sensitive to AZT) [nM]","IC50 (HIV-1; read-out: Syncytial Assay 50% Inhibitory Concentration, HIV-1G-910 (post AZT therapy)) [nM]","IC50 (HIV-1; read-out: Syncytial Assay 50% Inhibitory Concentration, HIV-1H-1112 (pre AZT therapy)) [nM]","IC50 (HIV-1; read-out: Syncytial Assay 50% Inhibitory Concentration, HIV-1IIIB (Table III)) [nM]",Differential Selectivity (HIV) (HIV-1; cytotoxicity in CEM-SS cells versus HIV syncytial assay),activity in reducing HIV production in persistently infected cells (HIV),activity against HCMV (HCMV),IC50 at 36 h [1] [nM],inhibition of RT enzyme (RT)
"Cc1cn([C@H]2C[C@H](N=[N+]=[N-])[C@@H](CO)O2)c(=O)[nH]c1=O [AZT, zidovudine]",2.7,210,0.2,7200,< 1,2,1852,not active,inactive,5000,–
CN1N=C(N)c2cn(C3OC(COP(=O)(O)OP(=O)(O)OP(=O)(O)O)C(O)C3O)c3ncnc1c23 (stereo not drawn) [TCN-triphosphate],–,–,–,–,–,–,–,–,–,–,do not act via inhibition of this enzyme
"Nc1ccn([C@H]2CC[C@@H](CO)O2)c(=O)n1 [ddC, dideoxycytidine]",–,–,–,–,–,–,–,not active,–,–,–
